Experimental data: PubChem BioAssay AID248 (DTP/NCI, 2004)
“And” between values parts separate entries of the source, which are not always exact repeats. Equal values may be shown once. Inconclusive results and toxic doses are left out. Cut-off read from the data, not from the text of the source: active = T/C of 150% or more; inactive = T/C below 125%.

System: L1210 leukemia ip in BDF1 mice, survival T/C
Assay: NCI In Vivo Anticancer Drug Screen. Data for tumor model L1210 Leukemia (intraperitoneal) in B6D2F1 (BDF1) mice
Conditions: endpoint: mean survival time, higher = longer survival
Outline: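 In this screen, tumor-bearing mice given compound are compared to those given vehicle, and their survival values are reported as a treated-to-control quotient.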

[1] = dose: 100.0 mg/kg/injection, schedule: Q04DX003 (ip), vehicle: saline with Tween-80
[2] = dose: 200.0 mg/kg/injection, schedule: Q04DX003 (ip), vehicle: saline with Tween-80
[3] = dose: 400.0 mg/kg/injection, schedule: Q04DX003 (ip), vehicle: saline with Tween-80
[4] = dose: 100.0 mg/kg/injection, schedule: Q01DX009 (ip), vehicle: saline with Tween-80
[5] = dose: 100.0 mg/kg/injection, schedule: Q04DX003 (ip), vehicle: acetone
[6] = dose: 200.0 mg/kg/injection, schedule: Q04DX003 (ip), vehicle: acetone
[7] = dose: 400.0 mg/kg/injection, schedule: Q04DX003 (ip), vehicle: acetone
[8] = dose: 100.0 mg/kg/injection, schedule: Q01DX009 (ip), vehicle: Klucel (hydroxypropylcellulose) (HPC)
[9] = dose: 100.0 mg/kg/injection, schedule: Q04DX003 (ip), vehicle: Klucel (hydroxypropylcellulose) (HPC)
[10] = dose: 200.0 mg/kg/injection, schedule: Q01DX009 (ip), vehicle: Klucel (hydroxypropylcellulose) (HPC)
[11] = dose: 200.0 mg/kg/injection, schedule: Q04DX003 (ip), vehicle: Klucel (hydroxypropylcellulose) (HPC)
[12] = dose: 400.0 mg/kg/injection, schedule: Q04DX003 (ip), vehicle: Klucel (hydroxypropylcellulose) (HPC)
[13] = dose: 100.0 mg/kg/injection, schedule: Q01DX009 (ip), vehicle: saline
[14] = dose: 200.0 mg/kg/injection, schedule: Q01DX009 (ip), vehicle: saline
[15] = dose: 400.0 mg/kg/injection, schedule: Q01DX009 (ip), vehicle: Klucel (hydroxypropylcellulose) (HPC)
[16] = dose: 50.0 mg/kg/injection, schedule: Q04DX003 (ip), vehicle: Klucel (hydroxypropylcellulose) (HPC)
[17] = dose: 100.0 mg/kg/injection, schedule: Q01DX001 (ip), vehicle: saline
[18] = dose: 100.0 mg/kg/injection, schedule: Q01DX009 (ip), vehicle: acetone
[19] = dose: 200.0 mg/kg/injection, schedule: Q01DX001 (ip), vehicle: saline
[20] = dose: 200.0 mg/kg/injection, schedule: Q01DX009 (ip), vehicle: acetone
[21] = dose: 400.0 mg/kg/injection, schedule: Q01DX001 (ip), vehicle: saline
[22] = dose: 50.0 mg/kg/injection, schedule: Q01DX009 (ip), vehicle: Klucel (hydroxypropylcellulose) (HPC)

Measured: T/C

Cc1ccc(S(=O)(=O)Nc2c(C)c(Cl)c(C)c3ccccc23)cc1
inactive: [1] 94 % of control | [2] 87 % of control | [3] 89 % of control

CCOC(=O)C1(C(C)C)OC2(O)C3CCCN3CC(C(C)C)N2C1=O (configuration not stated)
inactive: dose: 6.25 mg/kg/injection, schedule: Q01DX009 (ip), vehicle: saline with Tween-80 100 % of control | dose: 12.5 mg/kg/injection, schedule: Q01DX009 (ip), vehicle: saline with Tween-80 113 % of control | dose: 25.0 mg/kg/injection, schedule: Q01DX009 (ip), vehicle: saline with Tween-80 100 % of control | dose: 25.0 mg/kg/injection, schedule: Q04DX003 (ip), vehicle: saline with Tween-80 94 % of control | dose: 50.0 mg/kg/injection, schedule: Q01DX009 (ip), vehicle: saline with Tween-80 103 % of control | dose: 50.0 mg/kg/injection, schedule: Q04DX003 (ip), vehicle: saline with Tween-80 103 % of control | [4] 96 % of control | [1] 94 % of control

CC(=O)NS(=O)(=O)c1ccc(C)cc1
inactive: [5] 115 % of control | [6] 108 % of control | [7] 97 % of control

c1cc2c(c(NC3=NCCCS3)c1)CCCC2
inactive: [8] 102 % of control | [9] 97 % of control | [10] 96 % of control | [11] 95 % of control | [12] 90 % of control

CC[N+]12CC=C3COC(=O)C(C)(O)C(C)(O)C(C)C(=O)OC(CC1)C32 (configuration not stated)
inactive: dose: 50.0 mg/kg/injection, schedule: Q01DX009 (ip), vehicle: saline 92 % of control | [13] 97 % of control | [14] 92 % of control

O=C(CCCCl)NCc1ccccc1[N+](=O)[O-]
inactive: [8] 96 % of control | [9] 101 % of control | [10] 90 % of control | [11] 93 % of control | [15] 91 % of control | [12] 97 % of control

c1cnc2[nH]cnc2n1
inactive: [13] 86 % of control | [9] 100 % of control | [14] 109 % of control | [11] 100 % of control | dose: 400.0 mg/kg/injection, schedule: Q01DX009 (ip), vehicle: saline 112 % of control | [12] 105 % of control

Nc1cc2c(cc1Br)-c1c(C(=O)O)cccc1C2=O
inactive: dose: 75.0 mg/kg/injection, schedule: Q01DX001 (ip), vehicle: carboxymethylcellulose (CMC) 101 % of control | dose: 150.0 mg/kg/injection, schedule: Q01DX001 (ip), vehicle: carboxymethylcellulose (CMC) 95 % of control | dose: 300.0 mg/kg/injection, schedule: Q01DX001 (ip), vehicle: carboxymethylcellulose (CMC) 98 % of control

C=CCNC(=S)NCC=C
inactive: [8] 102 % of control | [9] 102 % of control | [10] 100 % of control | [11] 104 % of control | [15] 100 % of control | [12] 102 % of control

O=C(Nc1ccc2cc(S(=O)(=O)O)ccc2c1)c1ccc(N=Nc2c(S(=O)(=O)O)cc3cc(S(=O)(=O)O)cc(NC(=O)c4ccccc4)c3c2O)cc1
inactive: dose: 25.0 mg/kg/injection, schedule: Q01DX001 (ip), vehicle: Klucel (hydroxypropylcellulose) (HPC) 93 % of control | dose: 25.0 mg/kg/injection, schedule: Q01DX009 (ip), vehicle: other 108 % of control | dose: 25.0 mg/kg/injection, schedule: Q04DX003 (ip), vehicle: Klucel (hydroxypropylcellulose) (HPC) 95 % of control | dose: 50.0 mg/kg/injection, schedule: Q01DX001 (ip), vehicle: Klucel (hydroxypropylcellulose) (HPC) 88 % of control | dose: 50.0 mg/kg/injection, schedule: Q01DX009 (ip), vehicle: other 102 % of control | [16] 98 % of control | dose: 100.0 mg/kg/injection, schedule: Q01DX001 (ip), vehicle: Klucel (hydroxypropylcellulose) (HPC) 92 % of control | dose: 100.0 mg/kg/injection, schedule: Q01DX009 (ip), vehicle: other 97 % of control | [9] 101 % of control | [1] 104 % of control | dose: 150.0 mg/kg/injection, schedule: Q01DX009 (ip), vehicle: other 89 % of control | [2] 91 % of control

CSc1nc(N(C)C)c2ncn(C3OC(C[N+](=O)[O-])C(OC(C)=O)C(OC(C)=O)C3OC(C)=O)c2n1 (configuration not stated)
inactive: dose: 50.0 mg/kg/injection, schedule: Q04DX002 (ip), vehicle: saline 89 % of control | dose: 100.0 mg/kg/injection, schedule: Q04DX002 (ip), vehicle: saline 112 % of control | dose: 200.0 mg/kg/injection, schedule: Q04DX002 (ip), vehicle: saline 94 % of control

O=[N+]([O-])c1cccc(C(O)CC(O)(C(F)(F)F)C(F)(F)F)c1 (configuration not stated)
inactive: [4] 98 % of control | [1] 95 % of control | dose: 200.0 mg/kg/injection, schedule: Q01DX009 (ip), vehicle: saline with Tween-80 101 % of control | [2] 97 % of control | dose: 400.0 mg/kg/injection, schedule: Q01DX009 (ip), vehicle: saline with Tween-80 95 % of control | [3] 103 % of control

Clc1ccc(C2=NC(c3ccccc3)N3C2C3c2ccccc2)cc1 (configuration not stated)
inactive: dose: 100.0 mg/kg/injection, schedule: Q01DX001 (ip), vehicle: saline with Tween-80 95 % of control | dose: 200.0 mg/kg/injection, schedule: Q01DX001 (ip), vehicle: saline with Tween-80 89 % of control | dose: 400.0 mg/kg/injection, schedule: Q01DX001 (ip), vehicle: saline with Tween-80 89 % of control

O=S(=O)(c1ccccc1)C1CC1c1ccccc1 (configuration not stated)
inactive: dose: 50.0 mg/kg/injection, schedule: Q01DX009 (ip), vehicle: acetone 95 % of control | [17] 94 % of control | [18] 93 % of control | dose: 100.0 mg/kg/injection, schedule: Q04DX003 (ip), vehicle: saline 98 % of control | [19] 102 % of control | [20] 97 % of control | dose: 200.0 mg/kg/injection, schedule: Q04DX003 (ip), vehicle: saline 96 % of control | [21] 102 % of control | dose: 400.0 mg/kg/injection, schedule: Q04DX003 (ip), vehicle: saline 98 % of control

Oc1ccc(Cl)cc1/C=N/NC(=S)Nc1cccc2cccnc12
inactive: [17] 111 % of control | [19] 100 % of control | [21] 91 % of control

NC(=O)N/N=C/C(=O)O
inactive: dose: 100.0 mg/kg/injection, schedule: Q04DX002 (ip), vehicle: Klucel (hydroxypropylcellulose) (HPC) 96 % of control | dose: 200.0 mg/kg/injection, schedule: Q04DX002 (ip), vehicle: Klucel (hydroxypropylcellulose) (HPC) 104 % of control | dose: 400.0 mg/kg/injection, schedule: Q04DX002 (ip), vehicle: Klucel (hydroxypropylcellulose) (HPC) 104 % of control

O=C(Nc1ccc2ncccc2c1)Nc1ccc2ncccc2c1
inactive: [22] 90 % of control | [16] 89 % of control | [8] 93 % of control | [10] 93 % of control | [11] 86 % of control

CCCOc1cccc(C(=N)N)c1
inactive: dose: 75.0 mg/kg/injection, schedule: Q01DX001 (ip), vehicle: Klucel (hydroxypropylcellulose) (HPC) 97 % of control | dose: 150.0 mg/kg/injection, schedule: Q01DX001 (ip), vehicle: Klucel (hydroxypropylcellulose) (HPC) 96 % of control | dose: 300.0 mg/kg/injection, schedule: Q01DX001 (ip), vehicle: Klucel (hydroxypropylcellulose) (HPC) 96 % of control

COc1ccc(C2(OC)Oc3ccccc3C(=O)C2(O)OC)cc1OC (configuration not stated)
inactive: dose: 50.0 mg/kg/injection, schedule: Q01DX001 (ip), vehicle: saline 105 % of control | [17] 103 % of control | [19] 100 % of control | [21] 97 % of control

N#CC(C#N)=Cc1cccc2ccccc12
inactive: [22] 97 % of control and 91 % of control | [8] 95 % of control and 103 % of control | [9] 102 % of control | [10] 96 % of control and 105 % of control | [11] 97 % of control | [12] 103 % of control

C/C(=C\Cl)COC1CCCCO1 (configuration not stated)
inactive: [18] 95 % of control | [5] 101 % of control | [20] 95 % of control | [6] 101 % of control | [7] 101 % of control

CCC1NCCc2cc(OC)c(O)cc21 (configuration not stated)
inactive: dose: 75.0 mg/kg/injection, schedule: Q01DX001 (ip), vehicle: saline 106 % of control | dose: 150.0 mg/kg/injection, schedule: Q01DX001 (ip), vehicle: saline 100 % of control
